Results reported in patent publication US8304393B2, “Epithelial cell growth promoter” (Patent Technology Development Inc., priority 2004, dated 2012).

Test system: murine HBKs (hair bulb keratinocytes)
Assay: HBK growth test (Example 5, AlamarBlue)
Type: cell-based, mouse
Conditions: for cell growth effect as compared with that on the control: 4 days culture; for concentration at which significant difference from control could be noted: Dunnett's multiple comparison test, p<0.05
From the text: The epithelial cell growth promoters of Examples 1 and 2 and Reference Examples 1 and 2 were subjected to a cell growth test for murine HBKs, respectively. The following culture medium and test medium were used.
DMEM (product code “D-5523”, a product by Sigma)
FBS (product code “10100756”, a product by Cansera International Inc.)
• 10% Penicillin/streptomycin (product code “15140-122”, a product by GIBCO) • 1% (b) Test medium MCDB153 (product code “M7403”, a product by Sigma) Insulin (product code “16634”, bovine, a product by Sigma) • 5 μg/ml Apo-transferrin (product code “T1147”, human, a product by Sigma) • 10 μg/ml EGF (product code “01-101”, murine, a product by Upstate Biotechnology Inc.) • […] BPE (product code “13028-014”, bovine pituitary extract, a product by GIBCO) • 35 μg/ml Water-soluble hydrocortisone (product code “174-00”, a product by NACALAI TESQUE INC.) • 0.5 μg/ml Ethanolamine (product code “012-12455”, a product of Wako Pure Chemical Industries Ltd.) • 100 μM o-phosphorylethanolamine (product code “P0503”, a product by Sigma) • 100 μM
The skin of a 5 day-old mouse was cut with a scalpel into strips of approximately 2-mm-wide skin slices, which were in turn immersed in a solution prepared by dissolving dispase (lot No. 0101, a product by GODO SHUSEI CO.) at a proportion of 500 U/ml in DMEM (product code “D-5523”, a product by Sigma) containing FBS (product code “10100756”, a product by Cansera International Inc.) in a concentration of 5%, and then kept standing at 4° C. for 16 hours. Subsequently, the epidermis was ablated and removed with tweezers from the skin slices to collect only dermis tissues. The thus obtained dermis tissues were immersed in PBS (−) (product code “P-4417”, a product by Sigma) and cut into strips with opthalmological scissors. The thus obtained strips were immersed in a solution prepared by dissolving collagenase (lot No. 001014W, a product by Nitta Gelatin Inc.) in a concentration of 0.2% in DMEM containing FBS in a concentration of 5%, and then digested at 37° C. for 1 hour. After centrifugation at 1000 rpm for 5 minutes, the supernatant was removed, and the residue was supplemented with PBS (−) and gently pipetted to prepare a dermis suspension.
For separating dermal fibroblasts and hair bulbs, the dermis suspension was kept standing for 15 minutes to precipitate only the hair bulbs. The hair bulbs obtained by repeating the “standing to precipitation” procedure three times were immersed in a solution prepared by dissolving, in 2.65 mM EDTA aqueous solution, trypsin in a concentration of 0.25%, and then treated at 37° C. for 5 minutes to prepare a dispersion solution of HBKs.
Next, this dispersion solution was centrifuged at 1000 rpm for 5 minutes. After this centrifugation, the supernatant was removed. The thus obtained HBKs were dispersed in a culture medium, then inoculated into a collagen-coated 96-well microplate, and cultured at 37° C. in an atmosphere containing 5% CO2.
The isoleucyl-glycyl-serine (hereinafter, abbreviated to IGS), prolyl-isoleucyl-glycine (hereinafter, abbreviated to PIG), prolyl-isoleucyl-glycyl-serine (SEQ ID NO: 2) (hereinafter, abbreviated to PIGS), and glycyl-prolyl-isoleucyl-glycine (SEQ ID NO: 1) (hereinafter, abbreviated to GPIG) obtained in Examples 1 and 2 and Reference Examples 1 and 2 were separately dissolved in a test media to prepare 6 types of sample solutions each in a concentration of 0.3 μM, 1 μM, 3 μM, 10 μM, 30 μM, and 100 μM. Only a test medium was used as a control.
After 24 hours from the inoculation of the cells, the culture solutions were removed, and the cultured cells were washed with an MCDB153 solution. Each of the above-mentioned sample solutions was added to the cultured cell at 100 μl/well and cultured at 37° C. in an atmosphere containing 5% CO2. […]

Row | SMILES | cell growth effect as compared with that on the control (0.3 μM) [%] | cell growth effect as compared with that on the control (1 μM) [%] | cell growth effect as compared with that on the control (3 μM) [%] | cell growth effect as compared with that on the control (10 μM) [%] | cell growth effect as compared with that on the control (30 μM) [%] | cell growth effect as compared with that on the control (100 μM) [%] | concentration at which significant difference from control could be noted [µM]
1 | CC[C@H](C)[C@H](NC(=O)[C@@H]1CCCN1)C(=O)NCC(=O)O (racemic) [PIG, prolyl-isoleucyl-glycine] | 101 | 103 | 113 | 132 | 131 | 134 | ≥ 1
2 | CC[C@H](C)[C@H](NC(=O)[C@@H]1CCCN1)C(=O)NCC(=O)N[C@@H](CO)C(=O)O (racemic) [PIGS, prolyl-isoleucyl-glycyl-serine] | 104 | 103 | 108 | 110 | 127 | 133 | ≥ 3
3 | CC[C@H](C)[C@H](N)C(=O)NCC(=O)N[C@@H](CO)C(=O)O (racemic) [IGS, isoleucyl-glycyl-serine] | 98 | 103 | 106 | 124 | 134 | 133 | ≥ 10
4 | CC[C@H](C)[C@H](NC(=O)[C@@H]1CCCN1C(=O)CN)C(=O)NCC(=O)O (racemic) [GPIG, glycyl-prolyl-isoleucyl-glycine] | 105 | 108 | 118 | 133 | 134 | 138 | ≥ 0.3
